Data: EP2712863B1, “Novel inhibitors of bacterial biofilms and related methods” (Sequoia Sciences, Inc., priority 2012, dated 2014)
In brackets after ≈: the same amount, converted by molar mass. Read-outs that look alike come from different tables or passages of the source.

What was measured:
P. aeruginosa = experiment: Biofilm growth assay (spreading biofilm on semi-solid agar); assay type: cell-based; conditions: for IC85: Pseudomonas aeruginosa
E. coli = experiment: as above; assay type: cell-based; conditions: for IC85: Escherichia coli
How it was run: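 Spreading (swarming) biofilm on semi-solid agar: E. coli on LB with 0.6% agar and 0.5% glucose; P. aeruginosa on M8 agar with 0.2% glucose, 100 µM CaCl2, 1 mM MgSO4, 0.5% Casamino acids. Compound in medium; 5 µL overnight culture spotted centrally, 37°C overnight. Value: concentration (µg/ml) giving ≥85% reduction in spread area versus negative control.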

[1] = Table 4, concentration that reduces the area of the spreading biofilm by >= 85%, read-out: P. aeruginosa
[2] = Table 4, concentration that reduces the area of the spreading biofilm by >= 85%, read-out: E. coli
[3] = Table 4, concentration that reduces the area of the spreading biofilm by >= 85%

Compound | IC85 (P. aeruginosa; [1]) | IC85 (E. coli; [2]) | other results
CC1(C)CC[C@]2(C(=O)Nc3nnn[nH]3)CC[C@]3(C)C(=CCC4[C@@]5(C)Cc6c(n[nH]c6N)C(C)(C)C5CC[C@]43C)C2C1 (stereo partly drawn) [Compound 61, (4aS,6aS,6bR,13aR)-12-Amino-2,2,6a,6b,9,9,13a-heptamethyl-N-(1H-tetrazol-5-yl)-2,3,4,4a,5,6,6a,6b,7,8,8a,9,11,13,13a,13b,14,15b-octadecahydro-1H-chryseno[1,2-f]indazole-4a-carboxamide] |  |  | IC85 (P. aeruginosa; read-out: P. aeruginosa (µg/ml)): 0.5 µg/mL (≈ 0.892 µM); IC85 (E. coli; read-out: E. coli (µg/ml)): 0.5 µg/mL (≈ 0.892 µM)
CC1(C)CC[C@]2(CN)CC[C@]3(C)C(=CCC4[C@@]5(C)Cc6c(n[nH]c6N)C(C)(C)C5CC[C@]43C)C2C1 (stereo partly drawn) [Compound 63, (4aS,6aS,6bR,13aR)-4a-(Aminomethyl)-2,2,6a,6b,9,9,13a-heptamethyl-2,3,4,4a,5,6,6a,6b,7,8,8a,9,11,13,13a,13b,14,15b-octadecahydro-1H-chryseno[1,2-f]indazol-12-amine] | 4 µg/mL (≈ 8.35 µM) | 1 µg/mL (≈ 2.09 µM) | 
CC1(C)CC[C@]2(C(=O)NO)CC[C@]3(C)C(=CCC4[C@@]5(C)Cc6c(n[nH]c6N)C(C)(C)C5CC[C@]43C)C2C1 (stereo partly drawn) [Compound 65, (4aS,6aS,6bR,13aR)-12-Amino-N-hydroxy-2,2,6a,6b,9,9,13a-heptamethyl-2,3,4,4a,5,6,6a,6b,7,8,8a,9,11,13,13a,13b,14,15b-octadecahydro-1H-chryseno[1,2-f]indazole-4a-carboxamide] | 0.25 µg/mL (≈ 0.491 µM) | 0.25 µg/mL (≈ 0.491 µM) | 
CC1(C)CC[C@]2(C(=O)Nc3cc(O)[nH]n3)CC[C@]3(C)C(=CCC4[C@@]5(C)Cc6c(n[nH]c6N)C(C)(C)C5CC[C@]43C)C2C1 (stereo partly drawn) [Compound 66, (4aS,6aS,6bR,13aR)-12-Amino-N-(5-hydroxy-1H-pyrazol-3-yl)-2,2,6a,6b,9,9,13a-heptamethyl-2,3,4,4a,5,6,6a,6b,7,8,8a,9,11,13,13a,13b, 14,15b-octadecahydro-1H-chryseno[1,2-f]indazole-4a-carboxamide] | 0.25 µg/mL (≈ 0.435 µM) | 1 µg/mL (≈ 1.74 µM) | 
CC1(C)CC[C@]2(c3nnco3)CC[C@]3(C)C(=CCC4[C@@]5(C)Cc6c(n[nH]c6N)C(C)(C)C5CC[C@]43C)C2C1 (stereo partly drawn) [Compound 67, (4aS,6aS,6bR,13aR)-2,2,6a,6b,9,9,13a-Heptamethyl-4a-(1,3,4-oxadiazol-2-yl)-2,3,4,4a,5,6,6a,6b,7,8,8a,9,11,13,13a,13b,14,15b-octadecahydro-1H-chryseno[1,2-]indazol-12-amine] |  |  | P. aeruginosa (P. aeruginosa; [3]): 1 µg/mL; E. coli (E. coli; [3]): 2 µg/mL
CC1(C)CC[C@]2(C(=O)Nc3cc(N)n[nH]3)CC[C@]3(C)C(=CCC4[C@@]5(C)Cc6c(n[nH]c6N)C(C)(C)C5CC[C@]43C)C2C1 (stereo partly drawn) [Compound 69, (4aS,6aS,6bR,13aR)-12-amino-N-(3-amino-1H-pyrazol-5-yl)-2,2,6a,6b,9,9,13a-heptamethyl-2,3,4,4a,5,6,6a,6b,7,8,8a,9,11,13,13a,13b,14,15b-octadecahydro-1H-chryseno[1,2-f]indazole-4a-carboxamide] | 1 µg/mL (≈ 1.74 µM) | 1 µg/mL (≈ 1.74 µM) | 
CC1(C)CC[C@]2(C(=O)Sc3nnc(N)[nH]3)CC[C@]3(C)C(=CCC4[C@@]5(C)Cc6c(n[nH]c6N)C(C)(C)C5CC[C@]43C)C2C1 (stereo partly drawn) [Compound 70, (4aS,6aS,6bR,13aR)-S-5-Amino-4H-1,2,4-triazol-3-yl 12-amino-2,2,6a,6b,9,9,13a-heptamethyl-2,3,4,4a,5,6,6a,6b,7,8,8a,9,11,13,13a,13b,14,15b-octadecahydro-1H-chryseno[1,2-f]indazole-4a-carbothioate] | 0.5 µg/mL (≈ 0.845 µM) | 2 µg/mL (≈ 3.38 µM) | 
CC1(C)CC[C@]2(C(=O)Nc3nnc(N)s3)CC[C@]3(C)C(=CCC4[C@@]5(C)Cc6c(n[nH]c6N)C(C)(C)C5CC[C@]43C)C2C1 (stereo partly drawn) [Compound 71, (4aS,6aS,6bR,13aR)-12-Amino-N-(5-amino-1,3,4-thiadiazol-2-yl)-2,2,6a,6b,9,9,13a-heptamethyl-2,3,4,4a,5,6,6a,6b,7,8,8a,9,11,13,13a,13b,14,15b-octadecahydro-1H-chryseno[1,2-f]indazole-4a-carboxamide] | 0.5 µg/mL (≈ 0.845 µM) | 2 µg/mL (≈ 3.38 µM) | 
Cn1nc([C@]23CCC(C)(C)C[C@H]2C2=CCC4[C@@]5(C)Cc6c(n[nH]c6N)C(C)(C)[C@@H]5CC[C@@]4(C)[C@]2(C)CC3)cc1N (stereo partly drawn) [Compound 72, (4aS,6aS,6bR,8aR,13aR,15bS)-4a-(5-Amino-1-methyl-1H-pyrazol-3-yl)-2,2,6a,6b,9,9,13a-heptamethyl-2,3,4,4a,5,6,6a,6b,7,8,8a,9,11,13,13a,13b,14,15b-octadecahydro-1H-chryseno[1,2-f]indazol-12-amine] | 1 µg/mL (≈ 1.84 µM) | > 2 µg/mL | 
CC1(C)CC[C@]2(C(=O)n3ccnc3N)CC[C@]3(C)C(=CCC4[C@@]5(C)Cc6c(n[nH]c6N)C(C)(C)C5CC[C@]43C)C2C1 (stereo partly drawn) [Compound 73, (2-Amino-1H-imidazol-1-yl)((4aS,6aS,6bR,13aR)-12-amino-2,2,6a,6b,9,9,13a-heptamethyl-2,3,4,4a,5,6,6a,6b,7,8,8a,9,11,13,13a,13b,14,15b-octadecahydro-1H-chryseno[1,2-f]indazol-4a-yl)methanone] | 1 µg/mL (≈ 1.79 µM) | 1 µg/mL (≈ 1.79 µM) | 
CC1(C)CC[C@]2(C(=O)Nc3nnc(S)s3)CC[C@]3(C)C(=CCC4[C@@]5(C)Cc6c(n[nH]c6N)C(C)(C)C5CC[C@]43C)C2C1 (stereo partly drawn) [Compound 74, (4aS,6aS,6bR,13aR)-12-Amino-N-(5-mercapto-1,3,4-thiadiazol-2-yl)-2,2,6a,6b,9,9,13a-heptamethyl-2,3,4,4a,5,6,6a,6b,7,8,8a,9,11,13,13a,13b,14,15b-octadecahydro-1H-chryseno[1,2-f]indazole-4a-carboxamide] | 1 µg/mL (≈ 1.64 µM) | > 2 µg/mL | 
CC1(C)CC[C@]2(c3nnc(S)[nH]3)CC[C@]3(C)C(=CCC4[C@@]5(C)Cc6c(n[nH]c6N)C(C)(C)C5CC[C@]43C)C2C1 (stereo partly drawn) [Compound 75, 5-((4aS,6aS,6bR,13aR)-12-Amino-2,2,6a,6b,9,9,13a-heptamethyl-2,3,4,4a,5,6,6a,6b,7,8,8a,9,11,13,13a,13b,14,15b-octadecahydro-1H-chryseno[1,2-f]indazol-4a-yl)-4H-1,2,4-triazole-3-thiol] | 0.5 µg/mL (≈ 0.911 µM) | 1 µg/mL (≈ 1.82 µM) | 
CC1(C)CC[C@]2(C(=O)n3cnc(S)n3)CC[C@]3(C)C(=CCC4[C@@]5(C)Cc6c(n[nH]c6N)C(C)(C)C5CC[C@]43C)C2C1 (stereo partly drawn) [Compound 76, ((4aS,6aS,6bR,13aR)-12-Amino-2,2,6a,6b,9,9,13a-heptamethyl-2,3,4,4a,5,6,6a,6b,7,8,8a,9,11,13,13a,13b,14,15b-octadecahydro-1H-chryseno[1,2-f]indazol-4a-yl)(3-mercapto-1H-1,2,4-triazol-1-yl)methanone] | 0.5 µg/mL (≈ 0.867 µM) | 2 µg/mL (≈ 3.47 µM) | 
Cc1nnc(S)n1NC(=O)[C@]12CCC(C)(C)CC1C1=CCC3[C@@]4(C)Cc5c(n[nH]c5N)C(C)(C)C4CC[C@@]3(C)[C@]1(C)CC2 (stereo partly drawn) [Compound 77, (4aS,6aS,6bR,13aR)-12-Amino-N-(3-mercapto-5-methyl-4H-1,2,4-triazol-4-yl)-2,2,6a,6b,9,9,13a-heptamethyl-2,3,4,4a,5,6,6a,6b,7,8,8a,9,11,13,13a,13b,14,15b-octadecahydro-1H-chryseno[1,2-f]indazole-4a-carboxamide] | 1 µg/mL (≈ 1.65 µM) | 2 µg/mL (≈ 3.3 µM) | 
CC1(C)CC[C@]2(c3nnc(O)s3)CC[C@]3(C)C(=CCC4[C@@]5(C)Cc6c(n[nH]c6N)C(C)(C)C5CC[C@]43C)C2C1 (stereo partly drawn) [Compound 78, 5-((4aS,6aS,6bR,13aR)-12-Amino-2,2,6a,6b,9,9,13a-heptamethyl-2,3,4,4a,5,6,6a,6b,7,8,8a,9,11,13,13a,13b,14,15b-octadecahydro-1H-chryseno[1,2-f]indazol-4a-yl)-1,3,4-thiadiazol-2-ol] | > 1 µg/mL | 1 µg/mL (≈ 1.82 µM) | 
CC1(C)CC[C@]2(C(=O)Nc3cc(S)n[nH]3)CC[C@]3(C)C(=CCC4[C@@]5(C)Cc6c(n[nH]c6N)C(C)(C)C5CC[C@]43C)C2C1 (stereo partly drawn) [Compound 79, (4aS,6aS,6bR,13aR)-12-Amino-N-(3-mercapto-1H-pyrazol-5-yl)-2,2,6a,6b,9,9,13a-heptamethyl-2,3,4,4a,5,6,6a,6b,7,8,8a,9,11,13,13a,13b,14,15b-octadecahydro-1H-chryseno[1,2-f]indazole-4a-carboxamide] | 0.25 µg/mL (≈ 0.423 µM) | 0.5 µg/mL (≈ 0.846 µM) | 
CC1(C)CC[C@]2(C(=O)Nc3nnc(S(N)(=O)=O)s3)CC[C@]3(C)C(=CCC4[C@@]5(C)Cc6c(n[nH]c6N)C(C)(C)C5CC[C@]43C)C2C1 (stereo partly shown) [Compound 80] |  |  | P. aeruginosa (P. aeruginosa; [3]): 1 µg/mL; E. coli (E. coli; [3]): 1 µg/mL
CC1(C)CC[C@]2(c3n[nH]c(O)c3CCO)CC[C@]3(C)C(=CCC4[C@@]5(C)Cc6c(n[nH]c6N)C(C)(C)C5CC[C@]43C)C2C1 (stereo partly drawn) [Compound 81, 3-((4aS,6aS,6bR,13aR)-12-Amino-2,2,6a,6b,9,9,13a-heptamethyl-2,3,4,4a,5,6,6a,6b,7,8,8a,9,11,13,13a,13b,14,15b-octadecahydro-1H-chryseno[1,2-f]indazol-4a-yl)-4-(2-hydroxyethyl)-1H-pyrazol-5-ol] | 0.5 µg/mL (≈ 0.868 µM) | 1 µg/mL (≈ 1.74 µM) | 
Cc1c([C@]23CCC(C)(C)CC2C2=CCC4[C@@]5(C)Cc6c(n[nH]c6N)C(C)(C)C5CC[C@@]4(C)[C@]2(C)CC3)n[nH]c1O (stereo partly drawn) [Compound 82, 3-((4aS,6aS,6bR,13aR)-12-Amino-2,2,6a,6b,9,9,13a-heptamethyl-2,3,4,4a,5,6,6a,6b,7,8,8a,9,11,13,13a,13b,14,15b-octadecahydro-1H-chryseno[1,2-f]indazol-4a-yl)-4-methyl-1H-pyrazol-5-ol] | 0.5 µg/mL (≈ 0.916 µM) | 1 µg/mL (≈ 1.83 µM) | 
CC1(C)CC[C@]2(c3n[nH]c(O)c3F)CC[C@]3(C)C(=CCC4[C@@]5(C)Cc6c(n[nH]c6N)C(C)(C)C5CC[C@]43C)C2C1 (stereo partly drawn) [Compound 83, 3-((4aS,6aS,6bR,13aR)-12-Amino-2,2,6a,6b,9,9,13a-heptamethyl-2,3,4,4a,5,6,6a,6b,7,8,8a,9,11,13,13a,13b,14,15b-octadecahydro-1H-chryseno[1,2-f]indazol-4a-yl)-4-fluoro-1H-pyrazol-5-ol] | 0.25 µg/mL (≈ 0.455 µM) | 0.5 µg/mL (≈ 0.909 µM) | 
